Reference: patent US20230339856A1, “NOVEL PHARMACOLOGICAL CHAPERONE COMPOUNDS OF HUMAN ACID ALPHA-GLUCOSIDASE AND THE THERAPEUTIC USE THEREOF” (UNIVERSITÉ GRENOBLE ALPES, priority 2020, published 2023)

Legend:
[1] = target: T1, recombinant human acid α-glucosidase (rhGAA) (Homo sapiens (Human), UniProt P10253); experiment: Inhibition of rhGAA determined by Fluopol-ABPP; type: binding; settings: McIlvaine buffer pH 5.0, 37° C., TAMRA probe
Source text: The inhibiting activity on recombinant human acid α-glucosidase (rhGAA) of the compounds is implemented using the Fluopol-ABPP method (Fluorescence Polarization Activity Based Protein Profiling) described in the publication of Lahav et al., 2017, J. Am. Chem. Soc. 139: 14192-14197. This technique, based on the competition between an inhibitor and a fluorescent probe capable of binding covalently to the active site of an enzyme, makes it possible to measure the affinity of this inhibitor for the active site of the rhGAA enzyme used for these experiments by the laboratory of Professors Herman S. Overkleeft and Johanes M. F. G. Aerts, Leiden Institute of Chemistry, Leiden University (NL), is the enzyme marketed under the name Myozyme®. […] The […] (TAMRA) fluorescent probe in solution (25 nM) in the buffer is next added to the mixture. After 4 hours, the samples are irradiated with a polarized light (λ=530 nm) and the fluorescence emitted (λ=580 nm) is measured by means of an Infinite® M1000Pro (Tecan) spectrofluorimeter. For each concentration of inhibitor, the percentage of inhibition of the enzyme is determined by the formula:
%Inhibition=[Fmeasured−Fcontrol1)/Fcontro2)×100
The IC50 values are calculated by a non-linear regression of the % inhibition as a function of the concentration [I] by means of the GraphPad Prism 6.0 software. The results are a mean of three identical experiments (triplicates).

rhGAA = rhGAA (Homo sapiens (Human), UniProt P10253); experiment: Thermal stabilization of rhGAA by DSF (differential scanning fluorimetry); type: binding; settings: [I]=100 μM, pH 7.4; for ΔTm at 100 µM: read-out: rhGAA ΔTm at pH 7.4
Description: The stabilization of rhGAA in the presence of the compounds is determined in accordance with the method described in the publication of Niesen et al., 2007, Nat. Protoc. 2: 2212-2221. The rhGAA enzyme (2.5 μg, 0.1 mg/mL) is incubated in the absence and in the presence of each compound (at a concentration [I]=100 μM), of SYPRO® orange dye (Life Technologies), and of sodium phosphate buffer (25 mM) and of NaCI (150 mM), pH 7.4 or of sodium acetate buffer (25 mmol) and of NaCl (150 mM), pH 4.0. The thermal stability of the enzyme in these various conditions is evaluated by DSF (differential scanning fluorimetry) by varying the temperature by 1° C./min over an interval of 25 to 95° C., and measuring the fluorescence of the SYPRO® orange dye every minute by means of a Real-Time Cycler spectrofluorimeter (Biorad). The relative fluorescence is determined by comparing each fluorescence value measured with that of the maximum fluorescence value of the SYPRO® orange dye for each scan. The results are a mean of three identical experiments (triplicates).

[2] = target: T1, recombinant human acid α-glucosidase (rhGAA); experiment: Inhibition of rhGAA determined by measuring the residual activity in vitro; type: biochemical; settings: sodium acetate buffer pH 4.0, 37° C.; for IC50: 4-nitrophenyl-α-D-glucopyranoside substrate

Row | ΔTm at 100 µM (rhGAA) | Compound | IC50 [1] | rhGAA ΔTm at pH 7.4 (rhGAA) | Ki [2] | IC50 [2]
1 |  | OC[C@@H](O)[C@H]1N2C[C@H](O)[C@@H](O)[C@H](O)[C@]12CO (stereo partly drawn) [Compound (IIj), (3S,4R,5R,6R,7S)-7-((S)-1,2-dihydroxyethyl)-6-(hydroxymethyl)-1-azabicyclo[4.1.0]heptane-3,4,5-triol] | 15.2 µM |  |  | 
2 |  | OC[C@@]1(CCC23CC4CC(CC(C4)C2)C3)NC[C@H](O)[C@@H](O)[C@@H]1O [Compound (IIr)] |  | 14.5 °C | 20 µM | 29.5 µM
3 | 15 °C | OC[C@@]1(CCCc2ccccc2)NC[C@H](O)[C@@H](O)[C@@H]1O [Compound (IIc1), (2R,3R,4R,5S)-2-(hydroxymethyl)-2-(3-phenylpropyl)piperidine-3,4,5-triol] |  |  | 13 µM | 32.9 µM
4 | 6.2 °C | CCCCC[C@]1(CO)NC[C@H](O)[C@@H](O)[C@@H]1O [Compound (IIb1), (2R,3R,4R,5S)-2-(hydroxymethyl)-2-pentylpiperidine-3,4,5-triol] |  |  | 6.4 µM | 49.1 µM
5 |  | OC[C@]12[C@@H](O)[C@H](O)[C@@H](O)CN1[C@@H]2C(O)c1ccccc1 (stereo in doubt) [Compound (IIm), (3S,4R,5R,6R,7S)-7-((S)-hydroxy(phenyl)methyl)-6-(hydroxymethyl)-1-azabicyclo[4.1.0]heptane-3,4,5-triol] | 45 µM |  |  | 
6 | 16.8 °C | OC[C@@]1(CCC2CCCCC2)NC[C@H](O)[C@@H](O)[C@@H]1O [Compound (IIb7), (2R,3R,4R,5S)-2-(2-cyclohexylethyl)-2-(hydroxymethyl)piperidine-3,4,5-triol] |  |  |  | 
7 |  | OC[C@H]1N2C[C@H](O)[C@@H](O)[C@H](O)[C@]12CO (stereo partly drawn) [Compound (IIk), (3S,4R,5R,6R,7S)-6,7-bis(hydroxymethyl)-1-azabicyclo[4.1.0]heptane-3,4,5-triol] | 11.6 µM |  |  | 
8 |  | OC[C@]12[C@@H](O)[C@H](O)[C@@H](O)CN1[C@@H]2[C@H](O)C1CCCCC1 (stereo partly drawn) [Compound (IIn), (3S,4R,5R,6R,7S)-7-((R)-cyclohexyl(hydroxy)methyl)-6-(hydroxymethyl)-1-azabicyclo[4.1.0]heptane-3,4,5-triol] | 24.6 µM |  |  | 
9 |  | OC[C@@]12CCN1C[C@H](O)[C@@H](O)[C@@H]2O [Compound (IIh), (3S,4R,5R,6R)-6-(hydroxymethyl)-1-azabicyclo[4.2.0]octane-3,4,5-triol] | 9.7 µM |  |  | 

Row | Compound | ΔTm at 100 µM (rhGAA) | IC50 [1] | rhGAA ΔTm at pH 7.4 (rhGAA) | Ki [2] | IC50 [2]
10 | CCCCCCC[C@]1(CO)NC[C@H](O)[C@@H](O)[C@@H]1O [Compound (IIb3), (2R,3R,4R,5S)-2-heptyl-2-(hydroxymethyl)piperidine-3,4,5-triol] | 16.9 °C |  |  | 10.8 µM | 29.6 µM
11 | C[Si](C)(C)CC[C@]1(CO)NC[C@H](O)[C@@H](O)[C@@H]1O [Compound (IIx1), (2R,3R,4R,5S)-2-(hydroxymethyl)-2-(2-(trimethylsilyl)ethyl)piperidine-3,4,5-triol] | 16.5 °C |  |  |  | 40.3 µM
